We go through 21 compounds from patent US20260325533A1, “CDK INHIBITOR COMPOUNDS” (ALEKSIA THERAPEUTICS, INC., priority 2023, published 2026).

What all share (format): biochemical
The target in one experiment is CDK4/CCND3 (Homo sapiens, UniProt P11802). Kind of experiment: CDK4 homogeneous time-resolved fluorescence (HTRF) kinase assay. The note with it: CDK4/CCND; x = IC50 >250 nM; read-out: CDK4/CCND IC50 (>250 nM column). In short, it runs like this: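 IC50 values were derived from 11-point half-log dilutions, usually starting at 10 μM. Compound was first held for 20 min at 23 °C with 1.5 nM CDK4/CCND3. 1 mM ATP and 50 nM ULight-eIF4E-BP1 (Thr37/46) substrate were then added for 60 min, and the TR-FRET 665 nm signal was measured after EDTA stop and Eu-anti-phospho-4E-BP1 detection.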
Sequence of CDK4/CCND3 (P11802 whole entry): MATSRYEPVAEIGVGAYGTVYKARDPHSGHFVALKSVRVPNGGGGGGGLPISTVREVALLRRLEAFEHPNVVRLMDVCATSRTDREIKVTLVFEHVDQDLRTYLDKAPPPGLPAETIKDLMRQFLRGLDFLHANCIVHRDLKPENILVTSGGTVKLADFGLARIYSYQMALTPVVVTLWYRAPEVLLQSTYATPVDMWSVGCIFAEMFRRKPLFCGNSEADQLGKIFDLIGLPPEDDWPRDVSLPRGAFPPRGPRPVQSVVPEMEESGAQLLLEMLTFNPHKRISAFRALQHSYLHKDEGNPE
Sequence of CDK4/CCND3 (P30281 whole entry partner): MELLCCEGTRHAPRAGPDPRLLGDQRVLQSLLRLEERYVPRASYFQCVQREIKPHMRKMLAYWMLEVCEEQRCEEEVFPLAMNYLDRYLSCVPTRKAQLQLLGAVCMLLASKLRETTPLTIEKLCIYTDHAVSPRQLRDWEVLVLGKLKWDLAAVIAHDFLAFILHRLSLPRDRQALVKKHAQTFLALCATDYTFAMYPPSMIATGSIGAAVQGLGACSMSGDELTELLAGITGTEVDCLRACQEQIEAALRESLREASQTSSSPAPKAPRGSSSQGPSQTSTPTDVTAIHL
A general note: Time-resolved FRET reads energy transfer from a long-lived donor to a nearby acceptor.

A further experiment addresses CDK6/CCND1 (Homo sapiens, UniProt Q00534). Kind of experiment: CDK6 homogeneous time-resolved fluorescence (HTRF) kinase assay. The following applies: CDK6/CCND; x = IC50 >250 nM; read-out: CDK6/CCND IC50 (>250 nM column). An outline of the steps:
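Recombinant CDK6/CCND1 (1 nM final) was preincubated with compound for 20 min at 23 °C in HEPES buffer with MgCl2, EGTA, DTT and Tween 20. Kinase reaction then ran 60 min at 23 °C with 1 mM ATP and 50 nM ULight-4E-BP1 (Thr37/46) peptide, and was stopped with EDTA.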

The next experiment concerns the target CDK1/CCNB1 (Homo sapiens, UniProt P06493). Kind of experiment: CDK1 homogeneous time-resolved fluorescence (HTRF) kinase assay. The following applies: CDK1/CCNB; x = IC50 >250 nM; read-out: CDK1/CCNB IC50 (>250 nM column). In short, it runs like this: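 High-ATP (1 mM) HTRF assay with 0.5 nM CDK1/cyclin B1 and 50 nM ULight-4E-BP1 (Thr37/46) substrate, 60 min at 23 °C after 20-min compound preincubation. IC50 values come from dose-response curves.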

The next experiment concerns the target CDK2/CCNE1 (Homo sapiens, UniProt P24941). The experiment in a line: CDK2 homogeneous time-resolved fluorescence (HTRF) kinase assay. The note with it: CDK2/CCNE. In short, it runs like this: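 IC50 derived from 11-point, half-log dilutions (usually top 10 μM) of compound, 1% DMSO. Kinase (3 nM CDK2/CCNE1) was preincubated with compound 20 min, then phosphorylated 50 nM ULight-4E-BP1 peptide at 1 mM ATP for 60 min, 23 °C. Europium-antibody TR-FRET read after EDTA stop.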

Where [1] appears, read: x = IC50 >250 nM, read-out: CDK2/CCNE IC50 (>250 nM column).
Where [2] appears, read: x = IC50 25-250 nM, read-out: CDK2/CCNE IC50 (25-250 nM).
Setting [3] is: x = IC50 <25 nM, read-out: CDK2/CCNE IC50 (<25 nM).

Each structure is given as a SMILES string. Where two headings read alike, the source gives them in different places.

Sequence of CDK6/CCND1 (Q00534 whole entry): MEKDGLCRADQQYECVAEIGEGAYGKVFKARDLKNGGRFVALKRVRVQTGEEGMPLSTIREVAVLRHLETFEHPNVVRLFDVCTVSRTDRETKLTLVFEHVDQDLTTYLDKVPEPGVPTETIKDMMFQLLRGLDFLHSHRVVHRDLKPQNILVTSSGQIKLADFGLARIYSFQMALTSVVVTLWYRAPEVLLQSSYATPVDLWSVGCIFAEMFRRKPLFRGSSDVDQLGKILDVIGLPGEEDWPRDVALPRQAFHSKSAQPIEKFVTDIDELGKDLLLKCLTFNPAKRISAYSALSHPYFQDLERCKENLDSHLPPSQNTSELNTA
Sequence of CDK6/CCND1 (P24385 whole entry partner): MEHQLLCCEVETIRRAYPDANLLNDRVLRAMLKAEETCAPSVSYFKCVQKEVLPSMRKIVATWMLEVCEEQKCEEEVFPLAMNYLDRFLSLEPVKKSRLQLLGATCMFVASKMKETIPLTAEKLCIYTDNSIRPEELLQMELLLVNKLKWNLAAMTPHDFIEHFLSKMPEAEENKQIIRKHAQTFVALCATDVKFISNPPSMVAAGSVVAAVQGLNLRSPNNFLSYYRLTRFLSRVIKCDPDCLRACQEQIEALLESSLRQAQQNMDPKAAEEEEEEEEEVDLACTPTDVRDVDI
Sequence of CDK1/CCNB1 (P06493 whole entry): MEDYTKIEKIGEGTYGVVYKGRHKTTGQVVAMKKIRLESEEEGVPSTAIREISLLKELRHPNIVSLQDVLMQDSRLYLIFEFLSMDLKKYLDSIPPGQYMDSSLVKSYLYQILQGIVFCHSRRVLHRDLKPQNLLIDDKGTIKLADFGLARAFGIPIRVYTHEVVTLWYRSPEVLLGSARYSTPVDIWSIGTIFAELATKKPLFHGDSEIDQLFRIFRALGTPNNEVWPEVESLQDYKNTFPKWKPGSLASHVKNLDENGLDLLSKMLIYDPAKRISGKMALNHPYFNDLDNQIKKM
Sequence of CDK1/CCNB1 (P14635 whole entry partner): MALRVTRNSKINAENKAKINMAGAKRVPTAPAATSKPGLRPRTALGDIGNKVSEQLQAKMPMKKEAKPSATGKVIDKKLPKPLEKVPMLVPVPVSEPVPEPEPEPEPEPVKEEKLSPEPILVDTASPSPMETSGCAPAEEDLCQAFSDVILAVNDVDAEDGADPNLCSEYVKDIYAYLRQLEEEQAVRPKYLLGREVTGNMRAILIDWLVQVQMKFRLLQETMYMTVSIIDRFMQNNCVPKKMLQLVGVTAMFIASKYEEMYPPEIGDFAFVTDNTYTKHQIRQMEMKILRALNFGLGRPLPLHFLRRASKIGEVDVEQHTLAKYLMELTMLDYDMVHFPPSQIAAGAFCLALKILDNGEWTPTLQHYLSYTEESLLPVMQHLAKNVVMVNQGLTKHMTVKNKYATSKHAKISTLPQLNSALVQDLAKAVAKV

As for `COc1cc(C#Cc2nccc3cnc(Nc4ccc(S(C)(=O)=O)cc4)cc23)ncn1` [Ex 568, 5-((6-methoxypyrimidin-4-yl)ethynyl)-N-(4-(methylsulfonyl)phenyl)-2,6-naphthyridin-3-amine], the IC50 at CDK4/CCND3, at CDK6/CCND1, at CDK1/CCNB1 and on CDK2/CCNE1 (setting [1]) was greater than 250 nM each time.

Take `CS(=O)(=O)c1ccc(Nc2cc3c(C#Cc4cc(Cl)ncc4N)nccc3cn2)cc1` [Ex 569, 5-((5-amino-2-chloropyridin-4-yl)ethynyl)-N-(4-(methylsulfonyl)phenyl)-2,6-naphthyridin-3-amine]: the IC50 at CDK4/CCND3 was greater than 250 nM; at CDK6/CCND1, greater than 250 nM; on CDK1/CCNB1 it was greater than 250 nM; at CDK2/CCNE1 (setting [2]), 25 to 250 nM.

`Cc1ccc(C#Cc2nccc3cnc(Nc4ccc(S(C)(=O)=O)cc4)cc23)c(N)c1` [Ex 570, 5-((2-amino-4-methylphenyl)ethynyl)-N-(4-(methylsulfonyl)phenyl)-2,6-naphthyridin-3-amine]: the IC50 was greater than 250 nM at CDK4/CCND3, greater than 250 nM on CDK6/CCND1, greater than 250 nM on CDK1/CCNB1 and less than 25 nM on CDK2/CCNE1 (setting [3]).

Turning to `CS(=O)(=O)c1ccc(Nc2cc3c(C#Cc4cc(F)cc(C#N)c4)nccc3cn2)cc1` [Ex 571, 3-fluoro-5-((7-((4-(methylsulfonyl)phenyl)amino)-2,6-naphthyridin-1-yl)ethynyl)benzonitrile], the IC50 at CDK4/CCND3 is greater than 250 nM; at CDK6/CCND1, greater than 250 nM; at CDK1/CCNB1, greater than 250 nM; on CDK2/CCNE1 (setting [2]) it was 25 to 250 nM.

`CS(=O)(=O)c1ccc(Nc2cc3c(C#Cc4ccncc4N)nccc3cn2)cc1` [Ex 572, 5-((3-aminopyridin-4-yl)ethynyl)-N-(4-(methylsulfonyl)phenyl)-2,6-naphthyridin-3-amine]: the IC50 at CDK4/CCND3 was greater than 250 nM; at CDK6/CCND1, greater than 250 nM; at CDK1/CCNB1, greater than 250 nM; at CDK2/CCNE1 (setting [3]) it was less than 25 nM.

Consider `CS(=O)(=O)c1ccc(Nc2cc3c(C#Cc4n[nH]c5ccccc45)nccc3cn2)cc1` [Ex 573, 5-((1H-indazol-3-yl)ethynyl)-N-(4-(methylsulfonyl)phenyl)-2,6-naphthyridin-3-amine], for which the IC50 on CDK4/CCND3 was greater than 250 nM; at CDK6/CCND1, greater than 250 nM; at CDK1/CCNB1, greater than 250 nM; on CDK2/CCNE1 (setting [2]) it was 25 to 250 nM.

For `CS(=O)(=O)c1ccc(Nc2cc3c(C#Cc4cnc5cc[nH]c5c4)nccc3cn2)cc1` [Ex 574, 5-((1H-pyrrolo[3,2-b]pyridin-6-yl)ethynyl)-N-(4-(methylsulfonyl)phenyl)-2,6-naphthyridin-3-amine], the IC50 on CDK4/CCND3 is greater than 250 nM; at CDK6/CCND1, greater than 250 nM; on CDK1/CCNB1, greater than 250 nM; at CDK2/CCNE1 (setting [3]), less than 25 nM.

As for `CS(=O)(=O)c1ccc(Nc2cc3c(C#Cc4cncc(Cl)c4N)nccc3cn2)cc1` [Ex 575, 5-((4-amino-5-chloropyridin-3-yl)ethynyl)-N-(4-(methylsulfonyl)phenyl)-2,6-naphthyridin-3-amine], the IC50 on CDK4/CCND3 is greater than 250 nM; on CDK6/CCND1, greater than 250 nM; at CDK1/CCNB1, greater than 250 nM; at CDK2/CCNE1 (setting [2]), 25 to 250 nM.

Consider `CS(=O)(=O)c1ccc(Nc2cc3c(C#Cc4c(N)cccc4Cl)nccc3cn2)cc1` [Ex 576, 5-((2-amino-6-chlorophenyl)ethynyl)-N-(4-(methylsulfonyl)phenyl)-2,6-naphthyridin-3-amine], for which the IC50 at CDK4/CCND3 is greater than 250 nM; on CDK6/CCND1, greater than 250 nM; on CDK1/CCNB1, greater than 250 nM; at CDK2/CCNE1 (setting [2]), 25 to 250 nM.

`CS(=O)(=O)c1ccc(Nc2cc3c(C#Cc4cnc5ccc(Cl)nn45)nccc3cn2)cc1` [Ex 578, 5-((6-chloroimidazo[1,2-b]pyridazin-3-yl)ethynyl)-N-(4-(methylsulfonyl)phenyl)-2,6-naphthyridin-3-amine]: the IC50 was greater than 250 nM on CDK4/CCND3, greater than 250 nM on CDK6/CCND1, greater than 250 nM on CDK1/CCNB1 and 25 to 250 nM at CDK2/CCNE1 (setting [2]).

For the compound `COc1ncccc1C#Cc1nccc2cnc(Nc3ccc(S(C)(=O)=O)cc3)cc12` [Ex 579, 5-((2-methoxypyridin-3-yl)ethynyl)-N-(4-(methylsulfonyl)phenyl)-2,6-naphthyridin-3-amine], the IC50 at CDK4/CCND3 was greater than 250 nM; on CDK6/CCND1 it was greater than 250 nM; on CDK1/CCNB1 it was greater than 250 nM; on CDK2/CCNE1 (setting [2]) it was 25 to 250 nM.

For the compound `CS(=O)(=O)c1ccc(Nc2cc3c(C#Cc4ccnc(N)c4Cl)nccc3cn2)cc1` [Ex 580, 5-((2-amino-3-chloropyridin-4-yl)ethynyl)-N-(4-(methylsulfonyl)phenyl)-2,6-naphthyridin-3-amine], the IC50 at CDK4/CCND3 was greater than 250 nM; at CDK6/CCND1, greater than 250 nM; at CDK1/CCNB1 it was greater than 250 nM; on CDK2/CCNE1 (setting [3]), less than 25 nM.

Take `Cc1ccc(C#Cc2nccc3cnc(Nc4ccc(S(C)(=O)=O)cc4)cc23)c(N)n1` [Ex 581, 5-((2-amino-6-methylpyridin-3-yl)ethynyl)-N-(4-(methylsulfonyl)phenyl)-2,6-naphthyridin-3-amine]: the IC50 at CDK4/CCND3 is greater than 250 nM; at CDK6/CCND1, greater than 250 nM; at CDK1/CCNB1 it was greater than 250 nM; at CDK2/CCNE1 (setting [2]), 25 to 250 nM.

Turning to `Cc1cc(C#Cc2nccc3cnc(Nc4ccc(S(C)(=O)=O)cc4)cc23)n[nH]1` [Ex 582, 5-((5-methyl-1H-pyrazol-3-yl)ethynyl)-N-(4-(methylsulfonyl)phenyl)-2,6-naphthyridin-3-amine], the IC50 on CDK4/CCND3 was greater than 250 nM; at CDK6/CCND1 it was greater than 250 nM; at CDK1/CCNB1, greater than 250 nM; on CDK2/CCNE1 (setting [2]), 25 to 250 nM.

Regarding `CS(=O)(=O)c1ccc(Nc2cc3c(C#Cc4cccnc4O)nccc3cn2)cc1` [Ex 583, 3-((7-((4-(methylsulfonyl)phenyl)amino)-2,6-naphthyridin-1-yl)ethynyl)pyridin-2(1H)-one], the IC50 is greater than 250 nM at CDK4/CCND3, greater than 250 nM at CDK6/CCND1, greater than 250 nM on CDK1/CCNB1 and 25 to 250 nM on CDK2/CCNE1 (setting [2]).

On to `CS(=O)(=O)c1ccc(Nc2cc3c(C#Cc4ccc(N)nc4)nccc3cn2)cc1` [Ex 584, 5-((6-aminopyridin-3-yl)ethynyl)-N-(4-(methylsulfonyl)phenyl)-2,6-naphthyridin-3-amine], for which the IC50 was greater than 250 nM on CDK4/CCND3, greater than 250 nM on CDK6/CCND1, greater than 250 nM at CDK1/CCNB1 and 25 to 250 nM at CDK2/CCNE1 (setting [2]).

With `COc1cncc(C#Cc2nccc3cnc(Nc4ccc(S(C)(=O)=O)cc4)cc23)n1` [Ex 585, 5-((6-methoxypyrazin-2-yl)ethynyl)-N-(4-(methylsulfonyl)phenyl)-2,6-naphthyridin-3-amine], the IC50 on CDK4/CCND3 is greater than 250 nM; on CDK6/CCND1, greater than 250 nM; on CDK1/CCNB1, greater than 250 nM; at CDK2/CCNE1 (setting [2]) it was 25 to 250 nM.

On to `COc1cc(C#Cc2nccc3cnc(Nc4ccc(S(C)(=O)=O)cc4)cc23)c(F)cn1` [Ex 586, 5-((5-fluoro-2-methoxypyridin-4-yl)ethynyl)-N-(4-(methylsulfonyl)phenyl)-2,6-naphthyridin-3-amine], for which the IC50 on CDK4/CCND3 is greater than 250 nM; at CDK6/CCND1, greater than 250 nM; on CDK1/CCNB1 it was greater than 250 nM; at CDK2/CCNE1 (setting [2]), 25 to 250 nM.

Take `COC(=O)c1nc(C#Cc2nccc3cnc(Nc4ccc(S(C)(=O)=O)cc4)cc23)cnc1N` [Ex 588, methyl 3-amino-6-((7-((4-(methylsulfonyl)phenyl)amino)-2,6-naphthyridin-1-yl)ethynyl)pyrazine-2-carboxylate]: the IC50 at CDK4/CCND3, at CDK6/CCND1, on CDK1/CCNB1 and at CDK2/CCNE1 (setting [1]) was greater than 250 nM each time.

For the compound `Cc1ccc(C#Cc2nccc3cnc(Nc4ccc(S(C)(=O)=O)cc4)cc23)cc1C#N` [Ex 589, 2-methyl-5-((7-((4-(methylsulfonyl)phenyl)amino)-2,6-naphthyridin-1-yl)ethynyl)benzonitrile], the IC50 at CDK4/CCND3, at CDK6/CCND1, on CDK1/CCNB1 and at CDK2/CCNE1 (setting [1]) was greater than 250 nM throughout.

On to `CC(C)(O)c1ccc(C#Cc2nccc3cnc(Nc4ccc(S(C)(=O)=O)cc4)cc23)cc1` [Ex 596, 2-(4-((7-((4-(methylsulfonyl)phenyl)amino)-2,6-naphthyridin-1-yl)ethynyl)phenyl)propan-2-ol], for which the IC50 on CDK4/CCND3 is greater than 250 nM; at CDK6/CCND1, greater than 250 nM; on CDK1/CCNB1, greater than 250 nM; at CDK2/CCNE1 (setting [2]) it was 25 to 250 nM.
